Assay results taken from patent publication US11008346B2, “Beta-lactamase inhibitors” (priority 2014, dated 2021).

Columns and labels:
[1] = molecular target: T1, SHV-5 β-lactamase (Klebsiella pneumoniae, UniProt P0A3M1); assay: β-lactamase enzyme inhibition, SHV-5; format: biochemical
T1 construct: made in house; host or cells: E. coli BL21(DE3)
Method: (§1) For SHV-5, Kpc-2, p99AmpC and OXA-1 β-lactamases, E. coli BL21(DE3) bacterial cells carrying expression plasmids (expressed as native untagged proteins) for the individual β-lactamases were grown in 1 L of Superbroth (Teknova Inc. Hollister, Calif.) supplemented with 100 μg/ml kanamycin selection and 1×5052 (0.5% glycerol, 0.05% glucose and 0.2% α-lactose) at 35° C. for 18-20 hours. Cells were harvested by centrifugation (4,000×g, 4° C., 20 min), resuspended in 50 ml of 10 mM HEPES pH 7.5 ( 1/20 of the initial volume). The cells were lysed by sonication (5 pulses of 45 seconds) at 45 W on ice. The lysates were clarified by centrifugation at 10,000×g for 40 minutes at 4° C. Samples were diluted 5-fold in 50 mM sodium acetate pH 5.0, stored overnight at 4° C., after which they were centrifuged at 10,000×g for 30 minutes to clarify, and filtered through 0.45 μm filters. The samples were loaded onto a 5 ml Capto S sepharose cation exchange column (GE Healthcare) pre-equilibrated with 50 mM sodium acetate pH 5.0. The column was washed with 5 column volumes of 50 mM sodium acetate pH 5.0 to wash out unbound protein and a linear gradient of NaCl (0 to 500 mM) was used to elute the protein (over 16 CV) from the column. Fractions were assayed for […] activity using Centa (Calbiochem, Gibbstown, N.J.) or Nitrocefin (EMD Millipore chemicals, Darmstadt, Germany) as a reporter β-lactamase substrate for activity in the isolated fractions. Active fractions were pooled, concentrated and further purified by gel filtration chromatography on a Superdex 75 prep grade gel filtration column (GE Healthcare, Piscataway, N.J.) pre-equilibrated in 50 mM Hepes pH 7.5, 150 mM NaCl. Active fractions were pooled, concentrated, and quantitated by BCA protein determination (Thermo Scientific, Rockford, Ill.), dialyzed into PBS and frozen at −80° C. in 20% glycerol until use.
(§2) An equal volume of diluted enzyme stock was added, and the plates were incubated at 37° C. for 15 min. Nitrocefin was used as substrate for p99 AmpC, VIM-2 and OXA-1 and dispensed into each well at a final concentration of 100 μM. Absorbance at 486 nm was immediately monitored for 10 min using a Biotek Powerwave XS2 microplate spectrophotometer using the GEN5 software package (Biotek Instruments, Winooski Vt.). In an analogous fashion, imipenem was used as substrate for KPC-2 and Cefotaxime was used for SHV-5, while changes in absorbance upon hydrolysis of the β-lactam ring were monitored at 300 nm and 260 nm respectively in UV-transparent 96-well microtiter assay plates. Maximum rates of hydrolysis were compared to those in control wells (without inhibitors), and percentages of enzyme inhibition were calculated for each concentration of inhibitor. The concentration of inhibitor needed to reduce the initial rate of hydrolysis of substrate by 50% (IC50) was calculated as the residual activity of β-lactamase at 486 nm using GraFit version 7 kinetics software package (Erithacus Software, Surrey, UK).
(§3) Using the methodology described above, examples of the current invention were evaluated for their ability to inhibit β-lactamase enzymes from all four Ambler classifications (A through D). […] NT=Not tested.

[2] = system: K. pneumoniae 156319 expressing KPC-3; assay: broth microdilution MIC, K. pneumoniae KPC-3; format: cell-based; settings: Fixed Mero (meropenem) 4 μg/mL
Description: (§4) To determine the ability of test compounds to potentiate the inhibition of the growth of bacterial strains that produce beta-lactamase enzymes, classic cell based broth microdilution MIC assays were employed. Six bacteria strains producing beta-lactamase enzymes were used: E. coli expressing the Class A Extended Spectrum Beta-Lactamase (ESBL) CTX-M-15, E. cloacae expressing the Class C P99, K. pneumoniae expressing the Class A carbapenemase KPC-3, P. aeruginosa expressing the Class B carbapenemase VIM-2, K pneumoniae expressing the class A carbapenemase KPC-2 and the class B carbapenemase VIM-4, and S. aureus producing the Class A penicillinase PC-1. The assay was conducted in Cation Adjusted Mueller Hinton Broth (CAMHB, BD #212322, BD Diagnostic Systems, Sparks, Md.). Bacteria strains were grown for 3-5 hours in CAMBH broth. Test compounds were added to a microtiter plate in 2-fold serial dilutions in CAMHB in a final concentration range of 32 μg/mL to 0.25 μg/ml. An overlay of CAMHB containing a Beta-lactam was added to the compounds at a final static concentration of 4 μg/ml. […] In addition to the titration of test compounds the MICs of a panel of control beta-lactams is also tested to ensure the strains are behaving consistently from test to test. Once the test compound and antibiotics are added the plates can be inoculated according to CLSI broth microdilution method. After inoculation the plates are incubated for 16-20 hours at 37° C., then the Minimal Inhibitory Concentration (MIC) of the test compound is determined visually.
(§5) Using the methodology described above, examples of the current invention were evaluated for their ability to inhibit the growth of β-lactamase-producing bacteria in the presence of a β-lactam antibiotic.
(§6) Representative results are shown in Table 4 where A represents an MIC of the fixed β-lactam antibiotic in the presence of >32 µg/mL of a β-lactamase inhibitor of exemplary compounds, B represents the MIC in the presence of between 8 and 32 µg/mL of a β-lactamase inhibitor of exemplary compounds, and C represents the MIC in the presence of ≤4 µg/mL of a β-lactamase inhibitor of exemplary compounds. NT=Not Tested.

[3] = system: K. pneumoniae A-1797 expressing KPC-2 and VIM-4; assay: broth microdilution MIC, K. pneumoniae KPC-2 and VIM-4; format: cell-based; settings: Fixed Mero (meropenem) 4 μg/mL
Description: as §4, §5, §6

[4] = molecular target: T2, KPC-2 β-lactamase (Klebsiella pneumoniae, UniProt Q9F663); assay: β-lactamase enzyme inhibition, KPC-2; format: biochemical; settings: imipenem substrate, 300 nm; 15 min at 37° C. preincubation; read-out: IC50 KPC-2 (Class A)
T2 construct: made in house; host or cells: E. coli BL21(DE3)
Method: as §1, §2, §3

[5] = molecular target: T3, p99 AmpC β-lactamase (Enterobacter cloacae, UniProt P05364); assay: β-lactamase enzyme inhibition, p99 AmpC; format: biochemical
T3 construct: made in house; host or cells: E. coli BL21(DE3)
Method: as §1, §2
Using the methodology described above, examples of the current invention were evaluated for their ability to inhibit β-lactamase enzymes from all four Ambler classifications (A through D).

[6] = molecular target: T4, VIM-2 metallo β-lactamase (Pseudomonas aeruginosa, UniProt Q9K2N0); assay: β-lactamase enzyme inhibition, VIM-2; format: biochemical; settings: Nitrocefin 100 μM, 486 nm; 15 min at 37° C. preincubation; read-out: IC50 VIM-2 (Class B)
T4 construct: made in house; host or cells: E. coli BL21(DE3)
Method: For VIM-2 metallo β-lactamase, the procedure was identical with the following exceptions, first the protein was not pH adjusted to pH 5 with 50 mM sodium acetate. Second, the chromatography step was changed to a 5 ml Q sepharose anion exchange column pre-equilibrated with 50 mM Hepes pH 7.5, and elution of the protein was achieved by a linear gradient of NaCl (0-600 mM). Finally, the VIM-2 purification required a second run (3rd step) on the Q sepharose anion exchange column to achieve acceptable purity (>90%).
as §2, §3

[7] = system: E. coli ESBL4 expressing CTX-M-15; assay: broth microdilution MIC, E. coli CTX-M-15; format: cell-based; settings: for MIC of exemplary compounds in presence of fixed β-lactams, E. coli ESBL4 CTX-M-15: Fixed CAZ (ceftazidime) 4 μg/mL
Description: as §4, §5, §6

[8] = system: E. cloacae 144200 expressing Class C P99 AmpC; assay: broth microdilution MIC, E. cloacae P99; format: cell-based; settings: for MIC of exemplary compounds in presence of fixed β-lactams, E. cl. 144200 p99 AmpC: Fixed CAZ (ceftazidime) 4 μg/mL
Description: as §4, §5, §6

T2 sequence (Q9F663 25-293, looked up): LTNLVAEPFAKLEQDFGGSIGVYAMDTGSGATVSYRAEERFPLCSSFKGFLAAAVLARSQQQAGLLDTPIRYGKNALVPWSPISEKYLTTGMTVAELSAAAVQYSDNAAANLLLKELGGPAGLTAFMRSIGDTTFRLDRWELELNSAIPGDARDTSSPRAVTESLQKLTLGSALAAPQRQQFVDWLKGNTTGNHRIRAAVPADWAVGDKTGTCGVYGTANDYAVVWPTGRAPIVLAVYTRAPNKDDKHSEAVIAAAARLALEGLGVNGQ
T3 sequence (P05364 21-381): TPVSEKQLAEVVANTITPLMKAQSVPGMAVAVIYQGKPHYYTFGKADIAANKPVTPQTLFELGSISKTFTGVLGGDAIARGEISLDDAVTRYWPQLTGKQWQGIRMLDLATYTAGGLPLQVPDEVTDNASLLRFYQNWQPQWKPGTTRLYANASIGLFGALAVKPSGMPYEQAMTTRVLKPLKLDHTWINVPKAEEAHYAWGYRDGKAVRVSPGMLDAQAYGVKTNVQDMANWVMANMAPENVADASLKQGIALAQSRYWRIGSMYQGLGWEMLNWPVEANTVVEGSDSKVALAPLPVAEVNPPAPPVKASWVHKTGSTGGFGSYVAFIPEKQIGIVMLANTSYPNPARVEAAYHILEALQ
T1 sequence (P0A3M1 22-286): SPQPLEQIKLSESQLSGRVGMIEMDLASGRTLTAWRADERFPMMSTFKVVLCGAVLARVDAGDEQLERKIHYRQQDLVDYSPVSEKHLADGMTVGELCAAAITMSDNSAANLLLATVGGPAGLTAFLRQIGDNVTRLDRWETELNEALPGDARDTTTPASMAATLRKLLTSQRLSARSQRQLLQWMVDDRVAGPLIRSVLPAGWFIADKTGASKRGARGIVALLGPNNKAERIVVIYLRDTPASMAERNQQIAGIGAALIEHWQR

Compound	IC50 [1]	MIC of exemplary compounds in presence of fixed β-lactams, K.P. 156319 KPC-3 [2]	MIC of exemplary compounds in presence of fixed β-lactams, K.P. A-1797 KPC-2 VIM-4 [3]	IC50 [4]	IC50 [5]	IC50 [6]	MIC of exemplary compounds in presence of fixed β-lactams, E. coli ESBL4 CTX-M-15 [7]	MIC of exemplary compounds in presence of fixed β-lactams, E. cl. 144200 p99 AmpC [8]	MIC alone ([8]; partner antibiotic alone, E. cloacae expressing Class C P99)	MIC ([7]; Escherichia coli, read-out: MIC alone)
CS(=O)(=O)NCCCC(=O)N[C@H]1Cc2cccc(C(=O)O)c2OB1O [Example 57, (R)-2-Hydroxy-3-(4-methanesulfonylamino-butyrylamino)-3,4-dihydro-2H-benzo[e][1,2]oxaborinine-8-carboxylic acid]	< 100 nM	C (C represents the MIC in the presence of ≤4 g/mL of a β-lactamase inhibitor)	B (B represents the MIC in the presence of between 8 and 32 g/mL of a β-lactamase inhibitor)	< 100 nM	< 100 nM	1 to 10 µM	C (C represents the MIC in the presence of ≤4 g/mL of a β-lactamase inhibitor)	–	–	–
COC(=O)NCC(=O)N[C@H]1Cc2cccc(C(=O)O)c2OB1O [Example 56, (R)-2-Hydroxy-3-(2-methoxycarbonylamino-acetylamino)-3,4-dihydro-2H-benzo[e][1,2]oxaborinine-8-carboxylicacid]	< 100 nM	C (C represents the MIC in the presence of ≤4 g/mL of a β-lactamase inhibitor)	B (B represents the MIC in the presence of between 8 and 32 g/mL of a β-lactamase inhibitor)	100 to 1000 nM	< 100 nM	1 to 10 µM	C (C represents the MIC in the presence of ≤4 g/mL of a β-lactamase inhibitor)	C (C represents the MIC in the presence of ≤4 g/mL of a β-lactamase inhibitor)	–	–
CC(O)CCC(=O)N[C@H]1Cc2cccc(C(=O)O)c2OB1O (stereo partly drawn) [Example 63, (R)-2-Hydroxy-3-(4-hydroxy-pentanoylamino)-3,4-dihydro-2H-benzo[e][1,2]oxaborinine-8-carboxylic acid]	–	C (C represents the MIC in the presence of ≤4 g/mL of a β-lactamase inhibitor)	B (B represents the MIC in the presence of between 8 and 32 g/mL of a β-lactamase inhibitor)	–	–	–	C (C represents the MIC in the presence of ≤4 g/mL of a β-lactamase inhibitor)	C (C represents the MIC in the presence of ≤4 g/mL of a β-lactamase inhibitor)	–	–
O=C(Cc1ccncc1)N[C@H]1Cc2cccc(C(=O)O)c2OB1O [Example 65, (R)-2-Hydroxy-3-(2-pyridin-4-yl-acetylamino)-3,4-dihydro-2H-benzo[e][1,2]oxaborinine-8-carboxylic acid]	< 100 nM	C (C represents the MIC in the presence of ≤4 g/mL of a β-lactamase inhibitor)	C (C represents the MIC in the presence of ≤4 g/mL of a β-lactamase inhibitor)	< 100 nM	< 100 nM	–	C (C represents the MIC in the presence of ≤4 g/mL of a β-lactamase inhibitor)	C (C represents the MIC in the presence of ≤4 g/mL of a β-lactamase inhibitor)	–	–
CS(=O)(=O)CCCC(=O)N[C@H]1Cc2cccc(C(=O)O)c2OB1O [Example 59, (R)-2-Hydroxy-3-(4-methanesulfonyl-butyrylamino)-3,4-dihydro-2H-benzo[e][1,2]oxaborinine-8-carboxylic acid]	< 100 nM	C (C represents the MIC in the presence of ≤4 g/mL of a β-lactamase inhibitor)	B (B represents the MIC in the presence of between 8 and 32 g/mL of a β-lactamase inhibitor)	< 100 nM	< 100 nM	1 to 10 µM	C (C represents the MIC in the presence of ≤4 g/mL of a β-lactamase inhibitor)	–	–	–
CC(C)(O/N=C(\C(=O)N[C@@H]1C(=O)N2C(C(=O)[O-])=C(C[n+]3ccccc3)CS[C@H]12)c1csc(N)n1)C(=O)O [Ceftazidime, ceftazidime, reference compound]	–	–	–	–	–	–	–	–	128 µg/mL	> 128 µg/mL
CNS(=O)(=O)CCCC(=O)N[C@H]1Cc2cccc(C(=O)O)c2OB1O [Example 58, (R)-2-Hydroxy-3-(4-methylsulfamoyl-butyrylamino)-3,4-dihydro-2H-benzo[e][1,2]oxaborinine-8-carboxylicacid]	< 100 nM	C (C represents the MIC in the presence of ≤4 g/mL of a β-lactamase inhibitor)	B (B represents the MIC in the presence of between 8 and 32 g/mL of a β-lactamase inhibitor)	< 100 nM	< 100 nM	1 to 10 µM	C (C represents the MIC in the presence of ≤4 g/mL of a β-lactamase inhibitor)	–	–	–
